# Target: T1, DYRK1A (Homo sapiens, UniProt Q13627)
# T1 construct: purchased Thermo Fisher Scientific (Life Technologies) SelectScreen
# Test: SelectScreen Z'LYTE
# Format: biochemical
# How it was run: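 SelectScreen broad panel; activity (Z'LYTE, Adapta) plus binding formats. ATP: Km app for CSF1R Z'LYTE; 10 for CAMK1 Adapta. Readout = % per kinase.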
structure (smiles),measurement,value
CN(C(=O)CN1CCOCC1)c1ccc2sc3c(-c4cccc5c(=O)cc(N6CC7CCC(C6)O7)oc45)cccc3c2c1 [NU5455],inhibition at 1 µM,6.4%

# — paper PMC6934184, “Selective DNA-PKcs inhibition extends the therapeutic index of localized radiotherapy and chemotherapy” (The Journal of Clinical Investigation, 2019)
